{"source": "patent US20260152751A1", "about": "“INTERFERING RNA FOR INHIBITING JAK1 GENE EXPRESSION AND USE THEREOF” (Jenkem Technology Co., Ltd. (BEIJING), priority 2024, published 2026)", "key": {"JAK1 gene": {"tested_on": "JAK1 gene", "assay": "qPCR of JAK1 expression in HaCaT cells transfected with modified siJAK1", "format": "cell-based, human", "conditions": "siRNA 50 nM, 48 h after transfection, JAK1 by qPCR, siNC = 100.00", "experimental": "One day prior to transfection, 293T cells were seeded into a 24-well cell culture plate at 1×10^5 cells/well, and the culture medium was 500 μL of DMEM containing 10% FBS and 1% penicillin-streptomycin. Three replicate wells were made for each group. The culture plate was placed in an incubator with 5% CO2 at 37° C. for 24 h to allow the cells to adhere to the wall. On the day of transfection, the culture medium was changed to 450 μL of DMEM culture medium without antibiotics (containing 10% FBS). The siRNAs were diluted with 25 μL of Opti-MEM culture medium, and the control group was siNC at the same concentration; a Lipofectamine™RNAiMAX transfection reagent (Lip) was diluted with another 25 μL of Opti-MEM culture medium, and the mixture was left to stand at room temperature for 5 min; and the two dilutions were uniformly mixed and left to stand at room temperature for 5 min. 50 μL of the mixed solution described above was added to each well to obtain a final transfection volume of 500 μL, and the working concentration of the siRNA was 50 nM. After the cells were further cultured in an incubator with 5% CO2 at 37° C. for 48 h, the total RNA of the cells was extracted.\n1) The RNA was reverse-transcribed into a cDNA template using the All-in-One First-Strand Synthesis MasterMix (LABLEAD, Cat. No.: F0202) kit. The reaction system was established according to Table 2, where all components were mixed uniformly and centrifuged to collect the liquid at the bottom of a tube, and the PCR program was run according to the settings of 37° C. for 2 min, 55° C. for 15 min, and 85° C. for 5 min, thereby giving the cDNA template.\n2) The gene expression level was detected using the Taq SYBR® Green qPCR Premix (LABLEAD, Cat. No.: R0202) kit, and the qPCR system was established according to Table 3. All components were mixed uniformly and centrifuged to collect the liquid at the bottom of a tube, and the PCR program was run according to the following settings: • Step1: 95° C. 30 s; • Step2: 95° C. 10 s; • Step3: 60° C. 30 s+Plate Read; • Step4: Go to Step2, 40 times; • Step5: Melt Curve 65 to 95° C., increment 0.5° C., for 5 s+Plate Read.\nGAPDH was used as an endogenous reference to detect the relative expression level of JAK1 gene, and the sequences of the primers used are as follows: […]\nAccording to the method described in Example 2, human keratinocyte HaCaT cells were transfected with the modified siJAK1 at an siRNA working concentration of 50 nM. The expression level of JAK1 was detected by qPCR 48 h after the transfection. The controls included siNC and unmodified siJAK1 at the same concentration."}, "[1]": {"tested_on": "IFN-γ-induced STAT1 phosphorylation", "assay": "Western blot of IFN-γ-induced STAT1 phosphorylation in L929 cells", "format": "cell-based, mouse", "conditions": "siRNA 50 nM, 48 h, IFN-γ 100 ng/mL 30 min, compared to siNC in Group 3, FIG. 17", "description": "Mouse fibroblast L929 cells were seeded into a 6-well cell culture plate at 1×10^5 cells/well, and the culture medium was 2 mL of DMEM containing 10% FBS and 1% penicillin-streptomycin.\nThe cells were then harvested, and the total cellular proteins were extracted to detect the levels of phosphorylated STAT1 by Western blot.\n1) The cells were lysed in an appropriate volume of pre-chilled RIPA lysis solution (supplemented with 1 mM PMSF, R1090, LABLEAD prior to use; containing protease and phosphatase inhibitors) for 3-5 min. The lysates were centrifuged at 14000 g at 4° C. for 5 min. The supernatant was carefully pipetted into a new 1.5 mL centrifuge tube. Protein concentrations were measured using the BCA method (PC0020, Solarbio). The samples were mixed with a loading buffer and incubated in a water bath kettle at 95° C. for 10 min.\n2) The protein samples were separated by electrophoresis on 4-12% 12-well gradient gels (P41212, LABLEAD) using compatible electrophoresis buffer. […]\n4) The PVDF membrane was trimmed based on the molecular weight of the protein and the marker, and blocked with 5% skim milk in TBST at room temperature for 1 h. […] After the membrane was washed again, chemiluminescent substrate (E1050, E1080, LABLEAD) was added, and signals were captured using the Bio-Red imaging system (ChemiDoc™ XRS+Imager) and analyzed using the accompanying software. […]"}}, "data": [{"substance": "siJAK1-3283-m11: 2′-OMe and 2′-F modified siJAK1-3283; sense strand SEQ ID NO: 51, antisense strand SEQ ID NO: 55 (sense AGAACAUUGUGAAGUACAAUU; antisense UUGUACUUCACAAUGUUCUUU; 2'-OMe and 2'-F modifications; modified_base 20..21 OTHER; thymine; modified_base 1..2 OTHER; 2'-O-methyl; modified_base 3 OTHER; 2'-fluoro; modified_base 4 OTHER; modified_base 5 OTHER; modified_base 6 OTHER; modified_base 7 OTHER; modified_base 8 OTHER; modified_base 9..11 OTHER; modified_base 12 OTHER; modified_base 13 OTHER; modi; modified_base 1..3 OTHER; modified_base 7)", "values": [{"measurement": "Relative expression level, Mean value (Mean)", "setting": "JAK1 gene", "result": 18.37}, {"measurement": "Inhibition of IFN-γ-induced STAT1 phosphorylation level by modified siJAK1 (Western blot)", "setting": "[1]", "result": "superior inhibitory effects"}]}]}
